Assay [1] deals with HepG2 (human hepatocellular carcinoma). Kind of assay: Cytotoxic activity, MTT assay, HepG2. The assay is classed as cell-based. The conditions noted are these: 72 h, mean ±SD. Put shortly:
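HepG2, HeLa and Chang liver cells (8×10^3, 1×10^3, 5×10^3 cells/well) pre-grown 24 h, treated 72 h in triplicate (DMSO <0.1%), MTT 0.5 mg/ml 1 h, read 550 nm. Jurkat (5.5×10^3 cells/well) treated 72 h, XTT 4 h, read 450 nm. IC50 as mean±SD of at least three experiments.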

Assay [2] deals with HeLa cells. As to the kind of experiment: Cell cycle analysis by flow cytometry (FACS, PI), HeLa. The assay is classed as cell-based, human. The conditions noted are these: compound at its IC50, 72 h. As to the method: (§1) The effects on the cell cycle of some of these compounds were assessed through flow cytometry by using a fluorescence-activated cell sorter (FACS) (Table 5 below). For this assay 2.3×10^5 HepG2 cells/well, 2.9×10^4 HeLa cells/well, 1.6×10^5 Jurkat cells/well and 1.4×10^5 Chang liver cells/well were plated in 6 well plates with 2 ml of medium. The number of cells was determined by the relationship number of cells/area wells, considering the number of cells that were cultured in 96-well plates. […] Chang liver cells were incubated with compounds 20, […] at concentrations corresponding to the IC80 determined for HepG2 at 72 h. Following 72 h. of incubation, cells were harvested by mild trypsinization, collected by centrifugation and stained in ice-cold Tris-buffered saline (TBS), containing 1 mg/ml PI, 10 mg/ml RNAse free of DNAase and 0.1% Igepal CA-630 for 1 h at 4° C. FACS analysis was carried out at 488 nm in an Epics XL flow cytometer (Coulter Corporation, Hialeah, Fla.). Data from 8×10^3 cells were collected and analyzed using Multicycle program (Phoenix Flow Systems, San Diego, Calif.). All experiments were performed three times with three replicates per experiment. […] To explore the selectivity of the effect on tumor cells, we also tested compounds 20, 44 and 46 in a non-malignant cell line. Chang liver cells were treated with the compounds at the IC80 values determined for HepG2 after 72 h of incubation and no effect was observed, indicating a selective effect of these agents (Table 5 below).

Assay [3] deals with Jurkat cells. As to the kind of experiment: Cell cycle analysis by flow cytometry (FACS, PI), Jurkat. The conditions noted are these: compound at its IC50, 72 h. In kind it is cell-based, human. As to the method:
as §1

Assay [4] concerns Chang liver cells. Kind of assay: Cell cycle analysis by flow cytometry (FACS, PI), Chang liver. The assay is classed as cell-based, human. The conditions noted are these: for effect on cell cycle in non-malignant cell line: IC80 values determined for HepG2, 72 h; for Phase of cell cycle (% of cells) G0/G1 / Phase of cell cycle (% of cells) G2/M / Phase of cell cycle (% of cells) S: compound at IC80 determined for HepG2, 72 h. The procedure: The effects on the cell cycle of some of these compounds were assessed through flow cytometry by using a fluorescence-activated cell sorter (FACS) (Table 5 below). For this assay 2.3×10^5 HepG2 cells/well, 2.9×10^4 HeLa cells/well, 1.6×10^5 Jurkat cells/well and 1.4×10^5 Chang liver cells/well were plated in 6 well plates with 2 ml of medium. The number of cells was determined by the relationship number of cells/area wells, considering the number of cells that were cultured in 96-well plates. […] Following 72 h. of incubation, cells were harvested by mild trypsinization, collected by centrifugation and stained in ice-cold Tris-buffered saline (TBS), containing 1 mg/ml PI, 10 mg/ml RNAse free of DNAase and 0.1% Igepal CA-630 for 1 h at 4° C. FACS analysis was carried out at 488 nm in an Epics XL flow cytometer (Coulter Corporation, Hialeah, Fla.). Data from 8×10^3 cells were collected and analyzed using Multicycle program (Phoenix Flow Systems, San Diego, Calif.). All experiments were performed three times with three replicates per experiment. […] To explore the selectivity of the effect on tumor cells, we also tested compounds 20, 44 and 46 in a non-malignant cell line.

The test system of assay [5] is HepG2 cells. As to the kind of experiment: Apoptosis, Annexin V-FITC/PI FACS, HepG2. In kind it is cell-based, human. The note with it: HepG2, at IC50, 72 h; for effectiveness at inducing apoptosis: FIG. 8; for apoptosis (% of cells, early plus late): in comparison with untreated controls. The procedure: (§2) Assessment of apoptosis was performed 72 h after treatment with derivatives at their IC50. Briefly, the same number of HepG2, HeLa, Jurkat and Chang liver cells as in the cell cycle assay were treated with compounds 20, 44, 46 and betulinic acid 2, as described above. Cells were collected washed once in ice-sold binding buffer (10 mM HEPES/NaOH, pH 7.4, 140 mM NaCl, 2.5 mM CaCl2) and ressuspended in the same buffer (95 μl) at a maximum, of 8×10^5 cells/ml. Annexin V-FITC conjugate (1 μg/ml) was added and incubated for 30 min at room temperature in darkness. Just before FACS analysis, cells were stained with 20 μl of […]. Approximately 1×10^4 cells were analysed for each histogram and experiments were performed three times with triplicates per experiment. FACS analysis using Annexin V-FITC staining and PI accumulation was used to differentiate early apoptotic cells (Annexin V^+ and PI^−) from necrotic or late apoptotic cells (Annexin V^+ and PI^+). […] In comparison with untreated controls, compound 44 treatment of HepG2 cells generated apoptosis in 53% of cells (42% of early apoptosis and 11% of late apoptosis), compound 46 generated apoptosis in 38% of cells (28% of early apoptosis plus 10% late apoptosis) and compound 20 induced apoptosis in 29% of cells (22% of early apoptosis plus 7% late apoptosis) (FIG. 8).

The subject of assay [6] is HeLa cells. As to the kind of experiment: Apoptosis, Annexin V-FITC/PI FACS, HeLa. In kind it is cell-based, human. The conditions noted are these: at IC50, 72 h, FIG. 8. The procedure:
as §2

For assay [7], the system named is Jurkat cells. As to the kind of experiment: Apoptosis, Annexin V-FITC/PI FACS, Jurkat. The assay is classed as cell-based, human. The conditions noted are these: at IC50, 72 h, FIG. 8. The procedure: as §2

Take `C=C(C)[C@@H]1CC[C@]2(CO)CC[C@]3(C)[C@H](CC[C@@H]4[C@@]5(C)CC[C@H](OC(=O)n6ccnc6)C(C)(C)[C@@H]5CC[C@]43C)[C@@H]12` [Compound 20, 28-hydroxy-lup-20(29)-en-3β-yl-1H-imidazole-1-carboxylate]: the IC50 in assay [1] turned out to be 2 ± 0.4 µM. Moreover, in assay [2], the “Phase of cell cycle (% of cells) G0/G1” value is 50.6 ± 1.3 % of cells, the “Phase of cell cycle (% of cells) G2/M” value is recorded as 13.0 ± 1.4 % of cells and the “Phase of cell cycle (% of cells) S” value is recorded as 36.4 ± 2.4 % of cells. Also, in assay [3], the “Phase of cell cycle (% of cells) G0/G1” value is listed as 48.6 ± 4.4 % of cells, the “Phase of cell cycle (% of cells) G2/M” value was 15.8 ± 2.1 % of cells and the “Phase of cell cycle (% of cells) S” value is given as 35.6 ± 3.1 % of cells. In assay [4], the “effect on cell cycle in non-malignant cell line” value was “no effect”, the “Phase of cell cycle (% of cells) G0/G1” value was 68.6 ± 4.2 % of cells, the “Phase of cell cycle (% of cells) G2/M” value is given as 9.3 ± 1.3 % of cells and the “Phase of cell cycle (% of cells) S” value was 22.0 ± 3.0 % of cells. Further, in assay [5], the “early apoptosis (Annexin V+ and PI-)” value came to 22%; the “late apoptosis (Annexin V+ and PI+)” value was 7%; the “effectiveness at inducing apoptosis” value is given as “extremely effective”; the “apoptosis (% of cells, early plus late)” value was 29 % of cells. For the same molecule, the “effectiveness at inducing apoptosis” value in assay [6] was “extremely effective”. Further, the “effectiveness at inducing apoptosis” value in assay [7] was “extremely effective”.
As for `C=C(C)[C@@H]1CC[C@]2(C(=O)n3ccnc3)CC[C@]3(C)[C@H](CC[C@@H]4[C@@]5(C)CCC(=O)C(C)(C)[C@@H]5CC[C@]43C)[C@@H]12` [Compound 44, 28-(1H-imidazol-1-yl)-lup-20(29)-en-3,28-dione], the IC50 in assay [1] turned out to be 0.8 ± 0.05 µM. In assay [2], the “Phase of cell cycle (% of cells) G0/G1” value was 53.1 ± 1.1 % of cells, the “Phase of cell cycle (% of cells) G2/M” value is reported as 13.8 ± 1.1 % of cells and the “Phase of cell cycle (% of cells) S” value was 33.1 ± 0.9 % of cells. For the same molecule, in assay [3], the “Phase of cell cycle (% of cells) G0/G1” value is given as 52.7 ± 0.5 % of cells, the “Phase of cell cycle (% of cells) G2/M” value is listed as 20.8 ± 1.1 % of cells and the “Phase of cell cycle (% of cells) S” value is recorded as 26.6 ± 0.9 % of cells. In assay [4], the “effect on cell cycle in non-malignant cell line” value is “no effect”, the “Phase of cell cycle (% of cells) G0/G1” value is reported as 68.2 ± 2.9 % of cells, the “Phase of cell cycle (% of cells) G2/M” value was 8.6 ± 0.8 % of cells and the “Phase of cell cycle (% of cells) S” value is on record as 23.2 ± 2.5 % of cells. In assay [5], the “early apoptosis (Annexin V+ and PI-)” value was determined as 42%; the “late apoptosis (Annexin V+ and PI+)” value came out at 11%; the “effectiveness at inducing apoptosis” value is “most effective”; the “apoptosis (% of cells, early plus late)” value was 53 % of cells. Besides, the “effectiveness at inducing apoptosis” value in assay [6] is reported as “most effective”. Further, in assay [7], the “effectiveness at inducing apoptosis” value is recorded as “most effective”.
In assay [1], `C=C(C)[C@@H]1CC[C@]2(C(=O)n3ccnc3)CC[C@]3(C)[C@H](CC[C@@H]4[C@@]5(C)C=CC(=O)C(C)(C)[C@@H]5CC[C@]43C)[C@@H]12` [Compound 46, 28-(1H-imidazol-1-yl)-lup-1,20 (29)-dien-3,28-dione] came in with a 50% inhibitory concentration (IC50) of 1.7 ± 0.2 µM. Besides, in assay [2], the “Phase of cell cycle (% of cells) G0/G1” value is recorded as 64.6 ± 2.4 % of cells, the “Phase of cell cycle (% of cells) G2/M” value was 9.7 ± 1.3 % of cells and the “Phase of cell cycle (% of cells) S” value is listed as 25.6 ± 1.5 % of cells. In assay [3], the “Phase of cell cycle (% of cells) G0/G1” value is on record as 49.6 ± 2.6 % of cells, the “Phase of cell cycle (% of cells) G2/M” value is recorded as 20.7 ± 2.4 % of cells and the “Phase of cell cycle (% of cells) S” value is recorded as 29.8 ± 0.8 % of cells. In assay [4], the “effect on cell cycle in non-malignant cell line” value is listed as “no effect”, the “Phase of cell cycle (% of cells) G0/G1” value is on record as 68.2 ± 4.9 % of cells, the “Phase of cell cycle (% of cells) G2/M” value is reported as 9.2 ± 1.4 % of cells and the “Phase of cell cycle (% of cells) S” value was 22.6 ± 3.8 % of cells. Moreover, in assay [5], the “early apoptosis (Annexin V+ and PI-)” value worked out at 28%; the “late apoptosis (Annexin V+ and PI+)” value was found to be 10%; the “effectiveness at inducing apoptosis” value is “extremely effective”; the “apoptosis (% of cells, early plus late)” value is listed as 38 % of cells. In addition, the “effectiveness at inducing apoptosis” value in assay [6] is recorded as “extremely effective”. Also, the “effectiveness at inducing apoptosis” value in assay [7] is “extremely effective”.

The values above are taken from patent US8969395B2, “Triterpenoid derivatives useful as antiproliferative agents” (Universidade de Coimbra, priority 2009, dated 2015).
